According to US9580416B2, “Inhibitors of Bruton's tyrosine kinase” (PHARMACYCLICS LLC, priority 2014, dated 2017):
pIC50: −log10 of the molar value.

What was measured:
Assay type in all cases: biochemical
Btk = Btk (Homo sapiens, UniProt Q06187); test: Btk kinase activity, TR-FRET assay; conditions: read-out: Btk (IC50)
Procedure, shortened: (§1)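 Enzyme (Btk 0.5 nM; Lck 6 nM) reacted 1 h with inhibitor, ATP at Km and biotin-peptide substrate in pH 7.4 buffer, 10% DMSO. Phosphopeptide detected by Eu-p-Tyr100 antibody plus streptavidin-APC (665/615 nm). IC50 calculated from fitted Ki(app) via ATP/Km correction plus half total enzyme.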

Lck = Lck (Homo sapiens, UniProt P06239); test: Lck kinase activity, TR-FRET assay; conditions: read-out: LCK (IC50)
Sequence of Lck (P06239 whole entry, species assumed): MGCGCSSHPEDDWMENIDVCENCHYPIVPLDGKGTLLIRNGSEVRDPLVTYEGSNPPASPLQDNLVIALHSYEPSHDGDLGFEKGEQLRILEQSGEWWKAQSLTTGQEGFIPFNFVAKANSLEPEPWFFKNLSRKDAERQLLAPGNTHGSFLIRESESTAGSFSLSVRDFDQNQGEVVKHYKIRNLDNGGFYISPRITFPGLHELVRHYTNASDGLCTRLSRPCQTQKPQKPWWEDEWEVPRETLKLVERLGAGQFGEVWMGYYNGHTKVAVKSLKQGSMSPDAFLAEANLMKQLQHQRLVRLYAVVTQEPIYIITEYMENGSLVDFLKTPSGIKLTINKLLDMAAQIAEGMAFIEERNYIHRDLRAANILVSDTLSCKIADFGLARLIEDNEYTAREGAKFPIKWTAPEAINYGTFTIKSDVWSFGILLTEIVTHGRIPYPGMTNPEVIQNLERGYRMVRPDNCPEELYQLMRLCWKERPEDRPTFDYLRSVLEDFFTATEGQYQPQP
Procedure, shortened: as §1

EGFR = EGFR (Homo sapiens, UniProt P00533); test: Inhibition of a panel of kinases, in vitro HotSpot kinase assay: EGFR
Sequence of EGFR (P00533 25-1210): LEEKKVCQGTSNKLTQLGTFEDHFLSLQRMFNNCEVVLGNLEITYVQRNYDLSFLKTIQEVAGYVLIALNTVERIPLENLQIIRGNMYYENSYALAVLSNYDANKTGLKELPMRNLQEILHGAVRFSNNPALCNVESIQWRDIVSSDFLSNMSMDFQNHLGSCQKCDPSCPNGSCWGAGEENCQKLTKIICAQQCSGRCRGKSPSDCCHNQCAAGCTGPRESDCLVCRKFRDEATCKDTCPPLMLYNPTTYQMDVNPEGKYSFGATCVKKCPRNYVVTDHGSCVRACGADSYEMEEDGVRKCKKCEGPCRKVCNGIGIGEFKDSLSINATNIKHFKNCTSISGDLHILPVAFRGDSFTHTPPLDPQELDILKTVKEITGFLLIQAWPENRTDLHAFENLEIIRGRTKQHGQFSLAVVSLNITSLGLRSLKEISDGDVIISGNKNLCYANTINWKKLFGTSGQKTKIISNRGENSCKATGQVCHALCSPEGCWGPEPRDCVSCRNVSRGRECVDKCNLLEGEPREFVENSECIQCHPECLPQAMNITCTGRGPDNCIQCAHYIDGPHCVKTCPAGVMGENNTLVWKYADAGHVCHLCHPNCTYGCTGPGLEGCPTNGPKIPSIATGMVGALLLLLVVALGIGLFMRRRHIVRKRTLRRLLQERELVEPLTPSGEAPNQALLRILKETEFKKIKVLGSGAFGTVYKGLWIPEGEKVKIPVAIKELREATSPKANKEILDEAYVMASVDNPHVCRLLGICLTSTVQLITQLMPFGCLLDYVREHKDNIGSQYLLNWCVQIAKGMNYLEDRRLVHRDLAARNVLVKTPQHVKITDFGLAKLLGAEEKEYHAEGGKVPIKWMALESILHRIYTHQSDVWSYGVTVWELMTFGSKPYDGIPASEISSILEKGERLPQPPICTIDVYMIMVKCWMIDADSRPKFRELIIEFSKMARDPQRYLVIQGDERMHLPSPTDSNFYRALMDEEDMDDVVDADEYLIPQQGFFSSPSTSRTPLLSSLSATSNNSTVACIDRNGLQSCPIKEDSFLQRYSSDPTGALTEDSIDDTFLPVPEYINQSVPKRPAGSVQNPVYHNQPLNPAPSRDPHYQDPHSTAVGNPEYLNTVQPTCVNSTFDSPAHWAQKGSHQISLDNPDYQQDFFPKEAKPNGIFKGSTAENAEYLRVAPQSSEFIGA
Procedure: (§2) The degree of inhibition of a panel of kinases is determined using the in vitro HotSpot kinase assay (purified enzymes, ^33P-ATP, an appropriate substrate and 1 uM ATP).

JAK3 = biological target: T1, JAK3 (Homo sapiens, UniProt P52333); test: Inhibition of a panel of kinases, in vitro HotSpot kinase assay: JAK3
T1 sequence (P52333 1-1124): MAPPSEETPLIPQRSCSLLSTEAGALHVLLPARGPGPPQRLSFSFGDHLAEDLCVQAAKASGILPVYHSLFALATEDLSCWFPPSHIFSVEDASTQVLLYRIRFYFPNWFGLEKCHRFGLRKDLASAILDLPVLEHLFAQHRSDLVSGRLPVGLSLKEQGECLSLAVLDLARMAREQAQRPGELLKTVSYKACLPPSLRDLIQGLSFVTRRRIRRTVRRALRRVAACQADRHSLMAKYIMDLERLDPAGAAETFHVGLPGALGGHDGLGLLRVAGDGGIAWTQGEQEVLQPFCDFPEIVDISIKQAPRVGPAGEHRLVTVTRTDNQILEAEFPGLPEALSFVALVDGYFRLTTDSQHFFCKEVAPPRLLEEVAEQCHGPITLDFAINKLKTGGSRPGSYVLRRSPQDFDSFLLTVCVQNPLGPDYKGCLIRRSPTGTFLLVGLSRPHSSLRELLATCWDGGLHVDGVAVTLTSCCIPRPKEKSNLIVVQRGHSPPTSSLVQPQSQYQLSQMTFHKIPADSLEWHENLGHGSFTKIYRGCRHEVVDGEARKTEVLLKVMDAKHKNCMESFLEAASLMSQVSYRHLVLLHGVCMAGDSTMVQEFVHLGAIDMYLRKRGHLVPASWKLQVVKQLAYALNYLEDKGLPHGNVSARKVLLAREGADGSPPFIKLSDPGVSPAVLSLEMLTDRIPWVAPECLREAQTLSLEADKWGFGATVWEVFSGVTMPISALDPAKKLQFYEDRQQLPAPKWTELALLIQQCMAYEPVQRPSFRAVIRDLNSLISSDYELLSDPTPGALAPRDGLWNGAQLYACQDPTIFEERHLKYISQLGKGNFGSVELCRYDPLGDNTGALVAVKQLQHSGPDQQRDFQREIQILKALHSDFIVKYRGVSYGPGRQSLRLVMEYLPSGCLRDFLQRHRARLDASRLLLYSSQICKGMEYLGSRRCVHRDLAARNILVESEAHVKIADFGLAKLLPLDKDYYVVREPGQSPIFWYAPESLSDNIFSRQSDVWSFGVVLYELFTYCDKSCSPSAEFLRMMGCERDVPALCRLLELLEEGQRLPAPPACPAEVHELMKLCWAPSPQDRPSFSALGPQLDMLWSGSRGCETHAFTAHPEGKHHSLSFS
Procedure: as §2

Sequence of Btk (Q06187 whole entry): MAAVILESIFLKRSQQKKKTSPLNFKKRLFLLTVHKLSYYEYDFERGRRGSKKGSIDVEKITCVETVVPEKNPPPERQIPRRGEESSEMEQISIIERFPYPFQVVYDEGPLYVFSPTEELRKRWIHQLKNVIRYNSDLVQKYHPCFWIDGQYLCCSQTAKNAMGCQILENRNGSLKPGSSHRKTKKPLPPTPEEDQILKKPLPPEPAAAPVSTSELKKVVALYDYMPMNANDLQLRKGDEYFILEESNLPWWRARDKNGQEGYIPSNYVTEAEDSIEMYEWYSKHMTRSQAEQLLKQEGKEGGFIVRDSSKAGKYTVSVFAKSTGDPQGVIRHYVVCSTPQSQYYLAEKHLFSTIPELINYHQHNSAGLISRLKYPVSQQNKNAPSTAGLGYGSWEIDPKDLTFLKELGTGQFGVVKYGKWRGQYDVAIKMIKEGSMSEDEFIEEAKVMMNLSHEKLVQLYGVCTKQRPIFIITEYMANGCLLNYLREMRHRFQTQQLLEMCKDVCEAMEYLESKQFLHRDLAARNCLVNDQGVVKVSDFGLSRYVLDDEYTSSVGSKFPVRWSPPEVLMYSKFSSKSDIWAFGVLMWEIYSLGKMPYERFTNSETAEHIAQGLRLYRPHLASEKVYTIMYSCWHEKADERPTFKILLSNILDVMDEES

| SMILES | pIC50 (Btk) | pIC50 (Lck) | pIC50 (EGFR) | pIC50 (JAK3) |
| --- | --- | --- | --- | --- |
| CC(=O)N1CCC[C@@H](Oc2n[nH]c3nccc(Nc4cccc(C(=O)Nc5ccc(C(C)C)c(C)c5)c4)c23)C1 [compound 135, 3-[(3-{[(3R)-1-acetylpiperidin-3-yl]oxy}-1H-pyrazolo[3,4-b]pyridin-4-yl)amino]-N-[3-methyl-4-(propan-2-yl)phenyl]benzamide] | 6.00 to 7.00 | 5.00 to 6.00 | 5.00 to 6.00 | < 5.00 |
| CN1CCc2sc(NC(=O)c3ccc(Oc4ccnc5[nH]nc(N[C@@H]6CCCN(C(=O)/C=C/CN(C)C7CC7)C6)c45)cc3)nc2C1 [compound 137, 4-[(3-{[(3R)-1-[(2E)-4-[cyclopropyl(methyl)amino]but-2-enoyl]piperidin-3-yl]amino}-1H-pyrazolo[3,4-b]pyridin-4-yl)oxy]-N-{5-methyl-4H,5H,6H,7H-[1,3]thiazol[4,5-c]pyridin-2-yl}benzamide] | 6.00 to 7.00 | < 5.00 | < 5.00 | < 5.00 |
| Cc1csc(NC(=O)c2ccc(Oc3ccnc4[nH]nc(N[C@@H]5CCCN(C(=O)/C=C/CN(C)C6CC6)C5)c34)cc2)n1 [compound 139] | 6.00 to 7.00 | < 5.00 | 5.00 to 6.00 | 5.00 to 6.00 |
| C=CC(=O)N1CCC[C@@H](Nc2n[nH]c3nccc(Oc4ccc(C(=O)Nc5ncc(C)s5)cc4)c23)C1 [compound 140] | > 7.00 | 6.00 to 7.00 | 6.00 to 7.00 | > 7.00 |
| CC#CC(=O)N1CCC[C@@H](Nc2n[nH]c3nccc(Oc4ccc(C(=O)Nc5ncc(C)s5)cc4)c23)C1 [compound 141] | > 7.00 | 5.00 to 6.00 | < 5.00 | 5.00 to 6.00 |
| Cc1cnc(NC(=O)c2ccc(Oc3ccnc4[nH]nc(N[C@@H]5CCCN(C(=O)/C=C/CN(C)C6CC6)C5)c34)cc2)s1 [compound 142] | > 7.00 | 5.00 to 6.00 | 5.00 to 6.00 | 5.00 to 6.00 |
| C=CC(=O)N1CCC[C@@H](Nc2n[nH]c3nccc(Oc4ccc(C(=O)Nc5nc(C)cs5)cc4)c23)C1 [compound 143] | > 7.00 | 5.00 to 6.00 | 5.00 to 6.00 | > 7.00 |
| C=CC(=O)N1CCC[C@@H](Nc2n[nH]c3nccc(O[C@H]4CC[C@H](C(=O)Nc5ncc(C)s5)CC4)c23)C1 [compound 144] | 6.00 to 7.00 | < 5.00 | 5.00 to 6.00 | 6.00 to 7.00 |
| C=CC(=O)N1CCC[C@@H](Nc2n[nH]c3nccc(Oc4ccc(C(=O)Nc5nc6c(s5)CCN(C)C6)cc4)c23)C1 [compound 145] | > 7.00 | < 5.00 | < 5.00 | > 7.00 |
| C=CC(=O)N1CCC[C@@H](Nc2n[nH]c3nccc(Oc4ccc(C(=O)Nc5nc(C)c(C)s5)cc4)c23)C1 [compound 146] | > 7.00 | 6.00 to 7.00 | 6.00 to 7.00 | > 7.00 |
| C=CC(=O)N1CCC[C@@H](Nc2n[nH]c3nccc(Oc4cccc(-c5ncc(C)s5)c4)c23)C1 [compound 148] | 6.00 to 7.00 | < 5.00 | 6.00 to 7.00 | 5.00 to 6.00 |
| C=CC(=O)N1CCC[C@@H](Nc2n[nH]c3nccc(Oc4cccc(C(=O)Nc5ncc(C)s5)c4)c23)C1 [compound 149] | > 7.00 | 5.00 to 6.00 | > 7.00 | > 7.00 |
| C=CC(=O)N1CCC[C@@H](Nc2n[nH]c3nccc(Oc4ccc(Oc5ccccc5)c(C)c4)c23)C1 [compound 153] | > 7.00 | 6.00 to 7.00 | > 7.00 | 6.00 to 7.00 |
| C=CC(=O)N1CCC[C@@H](Nc2n[nH]c3nccc(Oc4ccc(-c5nc(C(F)(F)F)c[nH]5)cc4)c23)C1 [compound 154] | > 7.00 | < 5.00 | 5.00 to 6.00 | 5.00 to 6.00 |
| Cc1cc(Oc2ccnc3[nH]nc(N[C@@H]4CCCN(C(=O)/C=C/CN(C)C5CC5)C4)c23)ccc1Oc1ccccc1 [compound 156] | > 7.00 | 6.00 to 7.00 | 6.00 to 7.00 | < 5.00 |
| C=CC(=O)N1CCC[C@@H](Nc2n[nH]c3nccc(Oc4ccc(-c5ncc(C)s5)cc4)c23)C1 [compound 158] | > 7.00 | 5.00 to 6.00 | 6.00 to 7.00 | 5.00 to 6.00 |
